This experiment relates to P388 leukemia ip, CD2F1 mice, survival T/C. The experiment is described as follows: NCI In Vivo Anticancer Drug Screen. Data for tumor model P388 Leukemia (intraperitoneal) in CD2F1 (CDF1) mice. The settings on record: endpoint: median survival time, higher = longer survival. The method, boiled down:
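Mice carrying the transplanted tumor received test compound or vehicle. Survival was recorded in each group, and the value is the treated-group measurement divided by that of the vehicle-treated control group.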

Where [1] appears, read: dose: 50.0 mg/kg/injection, schedule: Q01DX009 (ip), vehicle: saline with Tween-80.
Where [2] appears, read: dose: 100.0 mg/kg/injection, schedule: Q01DX009 (ip), vehicle: saline with Tween-80.
The mark [3] stands for this setting: dose: 50.0 mg/kg/injection, schedule: Q01DX005 (ip), vehicle: saline with Tween-80.
[4] abbreviates: dose: 100.0 mg/kg/injection, schedule: Q01DX005 (ip), vehicle: saline with Tween-80.
Where [5] appears, read: dose: 50.0 mg/kg/injection, schedule: Q01DX009 (ip), vehicle: Klucel (hydroxypropylcellulose) (HPC).
Setting [6] is: dose: 100.0 mg/kg/injection, schedule: Q01DX009 (ip), vehicle: Klucel (hydroxypropylcellulose) (HPC).
[7] abbreviates: dose: 200.0 mg/kg/injection, schedule: Q01DX009 (ip), vehicle: saline with Tween-80.
[8] abbreviates: dose: 200.0 mg/kg/injection, schedule: Q04DX003 (ip), vehicle: saline with Tween-80.

T/C data for 22 compounds are collected here from PubChem BioAssay AID330 (DTP/NCI, 2004).

Molecules are shown by their SMILES. Where “and” joins values, the source holds several entries; their conditions need not be identical. Equal values may be shown once. Toxic doses and inconclusive results are not listed. Peptide text beside a SMILES is read from it. * marks the point of attachment. For = O=C*

On to `CC(C)N=c1sc(-c2ccccc2)c(C#N)c(=O)n1C(C)C`, for which the T/C is, setting by setting: (dose: 25.0 mg/kg/injection, schedule: Q01DX009 (ip), vehicle: saline with Tween-80) 101 % of control; under setting [1], 103 % of control; under setting [2], 103 % of control.

Take `CC1CCCC(C2CCCCCCC2O)N1` (stereo not drawn): the T/C runs as follows: (dose: 50.0 mg/kg/injection, schedule: Q01DX005 (ip), vehicle: saline) 100 % of control; (dose: 100.0 mg/kg/injection, schedule: Q01DX005 (ip), vehicle: saline) 92 % of control; (dose: 200.0 mg/kg/injection, schedule: Q01DX005 (ip), vehicle: saline) 97 % of control.

On to `CC(C)C(NC=O)C(=O)NCC(=O)NC(CO)C(=O)NC(CCC(=O)O)C(=O)O` (stereo not drawn) (For-VGSE-OH; configuration not given here), for which the T/C (dose: 9.0 mg/kg/injection, schedule: Q01DX005 (ip), vehicle: water) is 110 % of control; the T/C (dose: 18.0 mg/kg/injection, schedule: Q01DX005 (ip), vehicle: water) was 101 % of control; the T/C (dose: 36.0 mg/kg/injection, schedule: Q01DX005 (ip), vehicle: water) was 110 % of control; the T/C (dose: 72.0 mg/kg/injection, schedule: Q01DX005 (ip), vehicle: water) is 110 % of control; the T/C (dose: 144.0 mg/kg/injection, schedule: Q01DX005 (ip), vehicle: water) was 106 % of control.

For `CC(=O)C(=Cc1ccc(O)cc1)C(C)=O`, the T/C is, setting by setting: under setting [3], 100 % of control; under setting [4], 103 % of control; (dose: 200.0 mg/kg/injection, schedule: Q01DX005 (ip), vehicle: saline with Tween-80) 103 % of control.

`Nc1n[nH]c(N)c1N=Nc1ccccc1`: the T/C is 98 % of control under setting [5]; 99 % of control under setting [6]; 93 % of control (dose: 200.0 mg/kg/injection, schedule: Q01DX009 (ip), vehicle: Klucel (hydroxypropylcellulose) (HPC)); 94 % of control (dose: 400.0 mg/kg/injection, schedule: Q01DX009 (ip), vehicle: Klucel (hydroxypropylcellulose) (HPC)).

With `O=C(O)c1ccc(N2C(=O)CC3(CCCCC3)C2=O)cc1O`, the T/C is 101 % of control (dose: 100.0 mg/kg/injection, schedule: Q04DX003 (ip), vehicle: Klucel (hydroxypropylcellulose) (HPC)); 102 % of control (dose: 200.0 mg/kg/injection, schedule: Q04DX003 (ip), vehicle: Klucel (hydroxypropylcellulose) (HPC)); 88 % of control (dose: 400.0 mg/kg/injection, schedule: Q04DX003 (ip), vehicle: Klucel (hydroxypropylcellulose) (HPC)).

Take `CC(C)(OC(=O)NC(CC(N)=O)C(=O)O)c1ccc(-c2ccccc2)cc1` (stereo not drawn): the T/C was 98 % of control (dose: 50.0 mg/kg/injection, schedule: Q01DX005 (ip), vehicle: Klucel (hydroxypropylcellulose) (HPC)); 104 % of control (dose: 100.0 mg/kg/injection, schedule: Q01DX005 (ip), vehicle: Klucel (hydroxypropylcellulose) (HPC)); 90 % of control (dose: 200.0 mg/kg/injection, schedule: Q01DX005 (ip), vehicle: Klucel (hydroxypropylcellulose) (HPC)).

Consider `O=c1[nH]c2cc(Cl)ccc2nc1/C=C(\O)c1ccccn1`, for which the T/C is 92 % of control (dose: 60.0 mg/kg/injection, schedule: Q01DX005 (ip), vehicle: Klucel (hydroxypropylcellulose) (HPC)); 91 % of control (dose: 120.0 mg/kg/injection, schedule: Q01DX005 (ip), vehicle: Klucel (hydroxypropylcellulose) (HPC)); 93 % of control (dose: 240.0 mg/kg/injection, schedule: Q01DX005 (ip), vehicle: Klucel (hydroxypropylcellulose) (HPC)).

Turning to `Cc1ccc(NC(=O)Oc2cc(C)c(Cl)cc2C)c([N+](=O)[O-])c1`, the T/C is, setting by setting: under setting [1], 95 % of control; under setting [2], 87 % of control; under setting [7], 91 % of control.

Take `CC(=O)/C(=C\c1cccc(Cl)c1)C(=O)CCN(C)C`: the T/C was 108 % of control and 111 % of control (dose: 60.0 mg/kg/injection, schedule: Q01DX005 (ip), vehicle: saline with Tween-80); 115 % of control (dose: 120.0 mg/kg/injection, schedule: Q01DX005 (ip), vehicle: saline with Tween-80).

Turning to `CCCCCCCCCCCC[N+]1([O-])CCCCCC1`, the T/C runs as follows: (dose: 12.5 mg/kg/injection, schedule: Q01DX009 (ip), vehicle: saline) 100 % of control; (dose: 25.0 mg/kg/injection, schedule: Q01DX009 (ip), vehicle: saline) 100 % of control; (dose: 50.0 mg/kg/injection, schedule: Q01DX009 (ip), vehicle: saline) 107 % of control and 94 % of control.

Take `Cc1cc(=O)[nH]c2c1ccc1ccccc12`: the T/C is, setting by setting: (dose: 100.0 mg/kg/injection, schedule: Q04DX002 (ip), vehicle: saline with Tween-80) 95 % of control; (dose: 200.0 mg/kg/injection, schedule: Q04DX002 (ip), vehicle: saline with Tween-80) 93 % of control; (dose: 400.0 mg/kg/injection, schedule: Q04DX002 (ip), vehicle: saline with Tween-80) 99 % of control.

With `CCOc1ccc(/C=C/c2ccc3ccccc3[n+]2C)cc1OCC`, the T/C by setting is: (dose: 0.78 mg/kg/injection, schedule: Q01DX009 (ip), vehicle: saline with Tween-80) 102 % of control; (dose: 1.56 mg/kg/injection, schedule: Q01DX009 (ip), vehicle: saline with Tween-80) 111 % of control.

As for `O=[N+]([O-])c1cccc(C2CC(c3ccccc3)=Nc3ccccc3S2)c1` (stereo not drawn), the T/C under setting [5] was 107 % of control and the T/C under setting [6] was 100 % of control.

As for `O=C(c1ccc(OCC(O)CN2CCN(c3ccccc3)CC2)cc1)c1cc2ccccc2c2ccccc12` (stereo not drawn), the T/C is 106 % of control (dose: 100.0 mg/kg/injection, schedule: Q04DX003 (ip), vehicle: alcohol); 109 % of control (dose: 100.0 mg/kg/injection, schedule: Q04DX003 (ip), vehicle: other); 120 % of control (dose: 200.0 mg/kg/injection, schedule: Q04DX003 (ip), vehicle: alcohol); 105 % of control (dose: 200.0 mg/kg/injection, schedule: Q04DX003 (ip), vehicle: other).

Regarding `CC(C)CNCC(=O)Nc1ccc(Cc2ccc(NC(=O)CNCC(C)C)cc2)cc1`, the T/C is 102 % of control under setting [3] and 97 % of control under setting [4].

Consider `CCOC(=O)NC(=O)CNc1ncc([N+](=O)[O-])s1`, for which the T/C (dose: 100.0 mg/kg/injection, schedule: Q01DX001 (ip), vehicle: Klucel (hydroxypropylcellulose) (HPC)) was 100 % of control and the T/C (dose: 200.0 mg/kg/injection, schedule: Q01DX001 (ip), vehicle: Klucel (hydroxypropylcellulose) (HPC)) was 108 % of control.

For the compound `S=c1sscc1-c1ccc2ccccc2c1`, the T/C under setting [8] is 90 % of control and the T/C (dose: 400.0 mg/kg/injection, schedule: Q04DX003 (ip), vehicle: saline with Tween-80) was 97 % of control.

With `CNC(=S)N/N=C(\C)C(C)(C)C`, the T/C runs as follows: (dose: 25.0 mg/kg/injection, schedule: Q04DX003 (ip), vehicle: saline) 101 % of control; (dose: 50.0 mg/kg/injection, schedule: Q04DX003 (ip), vehicle: saline) 101 % of control; (dose: 100.0 mg/kg/injection, schedule: Q04DX003 (ip), vehicle: saline) 99 % of control and 104 % of control.

In the case of `CCn1ncc(N=O)c1N`, the T/C (dose: 60.0 mg/kg/injection, schedule: Q01DX005 (ip), vehicle: saline) was 104 % of control and 100 % of control; the T/C (dose: 120.0 mg/kg/injection, schedule: Q01DX005 (ip), vehicle: saline) was 92 % of control and 104 % of control; the T/C (dose: 240.0 mg/kg/injection, schedule: Q01DX005 (ip), vehicle: saline) was 90 % of control and 108 % of control.

With `ClCCN(CCCl)c1ccc2c3c(cccc13)-c1ccccc1-2`, the T/C reads like this: (dose: 25.0 mg/kg/injection, schedule: Q04DX003 (ip), vehicle: saline with Tween-80) 104 % of control; under setting [1], 154 % of control; under setting [2], 186 % of control; (dose: 132.0 mg/kg/injection, schedule: Q04DX003 (ip), vehicle: saline with Tween-80) 159 % of control; under setting [7], 86 % of control; under setting [8], 177 % of control and 212 % of control. Moreover, for the setting “dose: 300.0 mg/kg/injection, schedule: Q04DX003 (ip), vehicle: saline with Tween-80”, the T/C is 177 % of control.

Take `COC1CC(OC2CCC3(C)C(=CCC4C3C(OC(C)=O)C(OC(=O)CC(C)C)C3(C)C(C(C)=O)CCC43O)C2)OC(C)C1OC1CC(OC)C(OC2CC(OC)C(OC3OC(C)C(OC4OC(CO)C(O)C(O)C4O)C(OC)C3O)C(C)O2)C(C)O1` (stereo not drawn): the T/C is 95 % of control (dose: 4.13 mg/kg/injection, schedule: Q01DX005 (ip), vehicle: Klucel (hydroxypropylcellulose) (HPC)); 101 % of control (dose: 8.25 mg/kg/injection, schedule: Q01DX005 (ip), vehicle: Klucel (hydroxypropylcellulose) (HPC)); 101 % of control (dose: 16.5 mg/kg/injection, schedule: Q01DX005 (ip), vehicle: Klucel (hydroxypropylcellulose) (HPC)).
